Reference: ChEMBL document CHEMBL6083239, “Synthesis, optimization and antitumor activity evaluation of sulfonyl benzoyl hydrazide derivatives as novel human LSD1 inhibitors” (Bioorg Med Chem Lett, 2024)
In brackets after ≈: the same amount, converted by molar mass.

What was measured:
MDA-MB-231 = experiment: cells; conditions: Homo sapiens
Description: Antiproliferative activity against human MDA-MB-231 cells by MTT assay

A2780 = experiment: Antiproliferative activity against human A2780 cells by MTT assay
DU-145 = experiment: Antiproliferative activity against human DU-145 cells by MTT assay
A549 = experiment: cells; conditions: Homo sapiens
Description: Antiproliferative activity against human A549 cells by MTT assay

HCT-116 [1] = experiment: Antiproliferative activity against human HCT-116 cells by MTT assay
[2] = Solubility of compound; format: physicochemical
MCF7 = experiment: cells; conditions: Homo sapiens
Description: Antiproliferative activity against human MCF7 cells by MTT assay

HCT-116 [3] = experiment: Induction of apoptosis in human HCT-116 cells assessed as late apoptotic cells at 0.25 uM by Annexin V-FITC/PI staining based assay (reference value: 0.37%); format: functional
HCT-116 [4] = experiment: Antiproliferative activity against human HCT-116 cells assessed as reduction in EdU positive cells at 0.25 uM; format: functional, cell-based
HCT-116 [5] = experiment: Antitumor activity against human HCT-116 cells xenografted in nude mouse assessed as tumor growth inhibition at 60 mg/kg, ip measured every 3 days; format: functional; design: scale not given: the % may be the effect or the level left
HCT-116 [6] = experiment: Induction of apoptosis in human HCT-116 cells assessed as late apoptotic cells at 0.5 uM by Annexin V-FITC/PI staining based assay (reference value: 0.37%); format: functional
HCT-116 [7] = experiment: Upregulation of H3K4me1 expression in human HCT-116 cells at 0.125 to 0.5 uM; format: functional, cell-based; conditions: dose 0.125-0.5 µM
HCT-116 [8] = experiment: Induction of apoptosis in human HCT-116 cells assessed as necrotic cells at 0.5 uM by Annexin V-FITC/PI staining based assay (reference value: 1.05%); format: functional
HCT-116 [9] = experiment: Induction of apoptosis in human HCT-116 cells assessed as viable cells at 0.125 uM by Annexin V-FITC/PI staining based assay (reference value: 96.76%); format: functional; conditions: read-out: Activity
HCT-116 [10] = experiment: Upregulation of H3K4me2 expression in human HCT-116 cells at 0.125 to 0.5 uM; format: functional, cell-based; conditions: dose 0.125-0.5 µM
HCT-116 [11] = experiment: Induction of cell cycle arrest in human HCT-116 cells assessed as increase in S-phase cells at 0.5 uM; format: functional
HCT-116 [12] = experiment: Induction of apoptosis in human HCT-116 cells assessed as early apoptotic cells at 0.25 uM by Annexin V-FITC/PI staining based assay (reference value: 1.82%); format: functional
HCT-116 [13] = experiment: Induction of apoptosis in human HCT-116 cells assessed as necrotic cells at 0.125 uM by Annexin V-FITC/PI staining based assay (reference value: 1.05%); format: functional
[14] = Toxicity in nude mouse xenografted with human HCT-116 cells assessed as change in body weight at 60 mg/kg, ip; format: organism-based; conditions: in vivo
HCT-116 [15] = experiment: Induction of apoptosis in human HCT-116 cells assessed as viable cells at 0.5 uM by Annexin V-FITC/PI staining based assay (reference value: 96.76%); format: functional; conditions: read-out: Activity
HCT-116 [16] = experiment: Induction of cell cycle arrest in human HCT-116 cells assessed as increase in S-phase cells; format: functional, cell-based
HCT-116 [17] = experiment: Induction of apoptosis in human HCT-116 cells assessed as necrotic cells at 0.25 uM by Annexin V-FITC/PI staining based assay (reference value: 1.05%); format: functional
HCT-116 [18] = experiment: Induction of apoptosis in human HCT-116 cells assessed as early apoptotic cells at 0.125 uM by Annexin V-FITC/PI staining based assay (reference value: 1.82%); format: functional
HCT-116 [19] = experiment: Induction of apoptosis in human HCT-116 cells assessed as early apoptotic cells at 0.5 uM by Annexin V-FITC/PI staining based assay (reference value: 1.82%); format: functional
HCT-116 [20] = experiment: Induction of apoptosis in human HCT-116 cells assessed as viable cells at 0.25 uM by Annexin V-FITC/PI staining based assay (reference value: 96.76%); format: functional; conditions: read-out: Activity
HCT-116 [21] = experiment: Induction of apoptosis in human HCT-116 cells assessed as late apoptotic cells at 0.125 uM by Annexin V-FITC/PI staining based assay (reference value: 0.37%); format: functional
HCT-116 [22] = experiment: Induction of apoptosis in human HCT-116 cells assessed as early apoptotic cells at 2 uM by Annexin V-FITC/PI staining based assay (reference value: 1.82%); format: functional
HCT-116 [23] = experiment: Induction of apoptosis in human HCT-116 cells assessed as necrotic cells at 1 uM by Annexin V-FITC/PI staining based assay (reference value: 1.05%); format: functional
HCT-116 [24] = experiment: Induction of apoptosis in human HCT-116 cells assessed as early apoptotic cells at 1 uM by Annexin V-FITC/PI staining based assay (reference value: 1.82%); format: functional
HCT-116 [25] = experiment: Induction of apoptosis in human HCT-116 cells assessed as late apoptotic cells at 2 uM by Annexin V-FITC/PI staining based assay (reference value: 0.37%); format: functional
HCT-116 [26] = experiment: Induction of apoptosis in human HCT-116 cells assessed as necrotic cells at 2 uM by Annexin V-FITC/PI staining based assay (reference value: 1.05%); format: functional
HCT-116 [27] = experiment: Induction of apoptosis in human HCT-116 cells assessed as late apoptotic cells at 1 uM by Annexin V-FITC/PI staining based assay (reference value: 0.37%); format: functional
HCT-116 [28] = experiment: Induction of apoptosis in human HCT-116 cells assessed as viable cells at 1 uM by Annexin V-FITC/PI staining based assay (reference value: 96.76%); format: functional; conditions: read-out: Activity
HCT-116 [29] = experiment: Induction of apoptosis in human HCT-116 cells assessed as viable cells at 2 uM by Annexin V-FITC/PI staining based assay (reference value: 96.76%); format: functional; conditions: read-out: Activity

| Structure (SMILES) | IC50 (MDA-MB-231) [nM] | IC50 (A2780) [nM] | IC50 (DU-145) [nM] | IC50 (A549) [nM] | IC50 (HCT-116 [1]) [nM] | solubility [2] [µg/mL] | IC50 (MCF7) [nM] | other results |
| --- | --- | --- | --- | --- | --- | --- | --- | --- |
| CC1COCC(C)N1S(=O)(=O)c1cccc(C(=O)N/N=C2\CCc3c(O)ccc(O)c32)c1 (centres undefined) | 800 | 900 | 2300 | 300 | 100 | 77.2 (≈ 168 µM) | 100 | Activity (HCT-116 [3]): 1.71%; Activity (HCT-116 [4]): Active; At High Concentration Showed More Potent Activity Than Sp-2577; Activity (HCT-116 [5]): 75%; Activity (HCT-116 [6]): 2.15%; Activity (HCT-116 [7]): Active; Slight Increase Observed; Activity (HCT-116 [8]): 2%; viability at 0.125 µM (HCT-116 [9]): 86.1%; Activity (HCT-116 [10]): Active; Slight Increase Observed; Activity (HCT-116 [11]): 71%; Activity (HCT-116 [12]): 17.28%; Activity (HCT-116 [13]): 0.69%; Activity [14]: Non-toxic; viability at 0.5 µM (HCT-116 [15]): 70.2%; Activity (HCT-116 [16]): Dose-dependent-effect; Activity (HCT-116 [17]): 1.28%; Activity (HCT-116 [18]): 10.47%; Activity (HCT-116 [19]): 25.6%; viability at 0.25 µM (HCT-116 [20]): 79.7%; Activity (HCT-116 [21]): 2.73% |
| CC1COCC(C)N1S(=O)(=O)c1cccc(C(=O)N/N=C2\CCc3cccc(O)c32)c1 (centres undefined) | 1000 | 700 | 11800 | 300 | 700 | 30.2 (≈ 68.1 µM) | 300 |  |
| C/C(=N\NC(=O)c1cccc(S(=O)(=O)N2CCN(C)CC2)c1)c1cc(Cl)ccc1O [SECLIDEMSTAT] | 1100 | 2400 | 10500 | 2700 | 600 | 35.7 (≈ 79.2 µM) | 400 | Activity (HCT-116 [6]): 2.16%; Activity (HCT-116 [22]): 5.44%; Activity (HCT-116 [8]): 2.48%; Activity (HCT-116 [23]): 1.32%; Activity (HCT-116 [11]): 63%; Activity (HCT-116 [24]): 4.56%; viability at 0.5 µM (HCT-116 [15]): 92.1%; Activity (HCT-116 [25]): 0.97%; Activity (HCT-116 [26]): 1.87%; Activity (HCT-116 [27]): 0.64%; viability at 1 µM (HCT-116 [28]): 93.5%; Activity (HCT-116 [19]): 3.22%; viability at 2 µM (HCT-116 [29]): 91.7% |

Continued, in another order:

| IC50 (MDA-MB-231) [nM] | IC50 (A2780) [nM] | IC50 (DU-145) [nM] | IC50 (A549) [nM] | IC50 (HCT-116 [1]) [nM] | solubility [2] [µg/mL] | IC50 (MCF7) [nM] | Structure (SMILES) | other results |
| --- | --- | --- | --- | --- | --- | --- | --- | --- |
| 2900 | 900 | 1900 | 900 | 400 | 27.9 (≈ 67.2 µM) |  | O=C(N/N=C1\CCc2cccc(O)c21)c1cccc(S(=O)(=O)N2CCOCC2)c1 |  |
| 3200 | 1600 | 7600 | 1400 | 900 | 46.9 (≈ 109 µM) | 600 | O=C(N/N=C1\CCc2c(O)ccc(O)c21)c1cccc(S(=O)(=O)N2CCOCC2)c1 |  |
| 900 | 500 | 9200 | 500 | 500 | 23.9 (≈ 50 µM) | 600 | CC1COCC(C)N1S(=O)(=O)c1cccc(C(=O)N/N=C2\CCc3c(Cl)ccc(O)c32)c1 (centres undefined) |  |
| 2800 |  | 2500 | 1000 | 500 | 29 (≈ 64.5 µM) | 500 | O=C(N/N=C1\CCc2c(Cl)ccc(O)c21)c1cccc(S(=O)(=O)N2CCOCC2)c1 |  |
